The values that follow come from US20190048342A1, “CROSS-REGULATION OF TYPE I INTERFERON SIGNALING PATHWAYS” (THE METHODIST HOSPITAL SYSTEM, priority 2016, published 2019).

One assay has as its system P. berghei ANKA. The conditions noted are these: previous studies; cited from earlier work.
The subject of assay [1] is P. yoelii YM. The assay is described as follows: Serum cytokine levels (ELISA) in mice after P. yoelii YM infection. It counts as in vivo, mouse. Here is the method:
(§1) The parasite Plasmodium yoelii YM, N67C and N67 have been previously described (Li, J. et al. Proc Natl Acad Sci USA 108:E374-382 (2011)). For plasmodium infection, 0.2 (low) or 2×10^6 iRBCs (otherwise, indicated specifically in the figure legend) suspended in 200 μl PBS from the donor mice were intraperitoneally injected into experimental mice. A higher parasite dose (1×10^7 iRBCs) was used in some experiments. Parasitemias were monitored daily by examination of Giemsa-stained thin tail blood smears. Female mice C57BL/6 (WT), Mavs^−/−, Mda5^−/−, Myd88^−/−, Sting^−/−, Trif^−/−, BDCA2-DTR, Tlr2^−/−, Tlr3^−/−, and Tlr4^−/− mice were purchased from The Jackson Laboratory. Tlr9^−/− mice, Tlr7^−/−, Rig-I^−/− mice, Irf3^−/−:Irf7^−/− mice, and cGAS^−/− mice were obtained. All mouse-related procedures were performed according to experimental protocols approved by the Animal Care and Welfare Committee at Houston Methodist Research Institute and in accordance with NIH-approved animal study protocol LMVR-11E.
(§2) To deplete pDCs, pDC-depleting functional-grade mAb (anti-mPDCA-1 IgG, clone JF05-1C2.4.1) and the corresponding isotype control IgG, which served as control, were purchased from Miltenyi Biotec (Auburn, Calif.). Two intraperitoneal injections of antibody (250 μg/mouse) per mouse were administered 12 h prior and after YM infection.
Mouse splenocytes were prepared from spleens cut into small fragments and digested with collagenase D (1 mg/ml, Sigma) and DNAse I (20 μg/ml, Sigma) in RPMI-1640 medium for 30 min. […] Cells were analyzed using the BD FACS Aria II. […]
In Vivo Ready siRNAs were mixed with Invivofectamine 3.0 liposomes (Invitrogen) following the manufacturer's instructions and injected intravenously in a volume of 100 μl at a dose of 5 mg/kg. […]
The parasite Plasmodium yoelii YM and Plasmodium yoelii N67C have been previously described (Wu, J. et al. Proc Natl Acad Sci USA 111:E511-520 (2014); Li, J. et al. Proc Natl Acad Sci USA 108:E374-382 (2011)). […] Parasitemias were monitored daily by examination of Giemsa-stained thin tail blood smears. […]

In assay [2] the test system is P. yoelii YM. Nature of the assay: Daily parasitemia and mortality of mice after P. yoelii YM infection. It counts as in vivo, mouse. Here is the method: as §1, §2
In Vivo Ready siRNAs were mixed with Invivofectamine 3.0 liposomes (Invitrogen) following the manufacturer's instructions and injected intravenously in a volume of 100 μl at a dose of 5 mg/kg. Mice were infected with P. yoelii YM (0.5×10^6 iRBCs) 48 h after siRNA treatment.
Deficient (Mda5^−/−, Mavs^−/−, and Sting^−/−) mice were crossed with BDCA2-DTR transgenic mice and treated with diphtheria toxin (DT, Sigma-Aldrich) intraperitoneally (i.p.) at a dose of 100-120 ng/mouse. pDCs were depleted by DT injection at 1 day before and 1, 3, and 5 days after P. yoelii YM infection.
The parasite Plasmodium yoelii YM and Plasmodium yoelii N67C have been previously described (Wu, J. et al. Proc Natl Acad Sci USA 111:E511-520 (2014); Li, J. et al. Proc Natl Acad Sci USA 108:E374-382 (2011)). For plasmodium infection, 0.2 (low) or 2×10^6 iRBCs (otherwise, indicated specifically in the figure legend) suspended in 200 μl PBS from the donor mice were intraperitoneally injected into experimental mice. Parasitemias were monitored daily by examination of Giemsa-stained thin tail blood smears. Female mice C57BL/6 (WT), Mavs^−/−, Mda5^−/−, Sting^−/−, BDCA2-DTR, zDC-DTR, Ifnar^−/−, and Rag2^−/− mice were purchased from The Jackson Laboratory. All mouse-related procedures were performed according to experimental protocols approved by the Animal Care and Welfare Committee at Houston Methodist Research Institute and in accordance with NIH-approved animal study protocol LMVR-11E.
To block type I IFN receptor, anti-mouse interferon α/β receptor antibodies (Leinco Technologies), in the amount of 500 μg in PBS at day 0, 2, 4, and 250 μg at day 6 after infection (or indicated specifically in the figure legend), were intraperitoneally injected into WT and deficient mice. Mouse IgG antibody was used as control, and parasitemias were monitored by daily Giemsa-stained blood smears. To test the role of type I IFN cytokines, C57BL/6 mice were first infected with P. yoelii YM, and then intravenously injected with 800 U/g mouse recombinant IFN-α and IFN-β, recombinant IL-6, or recombinant IFN-γ at the indicated time points. Bovine serum albumin (BSA, 0.1%) in PBS served as a control, and parasitemias were monitored by daily Giemsa-stained blood smears. To deplete pDCs, pDC-depleting functional-grade mAb (anti-mPDCA-1 IgG, clone JF05-1C2.4.1) was purchased from Miltenyi Biotec (Auburn, Calif.), and the corresponding isotype control IgG served as control. Two intraperitoneally injections of antibody (250 μg/mouse) per mouse were administered 12 h prior and after plasmodium YM infection or indicated specifically in the figure legend. […]

The next assay has as its system RNA polymerase III. Nature of the assay: IFN-β mRNA in RAW264.7 cells after P. yoelii YM gDNA stimulation, with RNA polymerase III knockdown or inhibition. It counts as cell-based. The settings on record: siRNA 48 h or ML60218 pretreatment 24 h, then P. yoelii YM gDNA stimulation 6 h. The text has this:
FIGS. 10A to 10G show type I IFN gene expression after P. yoelii YM gDNA or RNA stimulation and WT mice serum cytokine level after P. yoelii YM infection. […] Data are plotted as the mean±s.d. and are representative of three independent experiments. *P<0.05, **P<0.01, ***P<0.001 vs. corresponding control. ND, not detected; NS, not significant.
To understand the molecular mechanisms by which mice deficient in the cGAS, Sting, Mda5, or Mavs gene were resistant to P. yoelii YM infection, experiments were conducted to determine whether cGAS and MDA5 function as DNA/RNA sensors for detecting P. yoelii YM gDNAs or RNAs (FIG. 2a). Both purified P. yoelii YM gDNA and RNA could induce IFN-β mRNA expression in RAW264.7 cells (FIG. 2b). The ability of P. yoelii YM gDNA to induce type I IFN response was completely abolished upon DNase, but not RNase, treatment (FIG. 10a). Similarly, the stimulating activity of parasite RNA was abolished after treatment with RNase, but not DNase (FIG. 10a), which is in agreement with other studies showing that malaria RNA can be detected by MDA5 sensor (Liehl, P. et al. Nat Med 20:47-53 (2014); Wu, J. et al. Proc Natl Acad Sci USA 111:E511-520 (2014)). […]

The mark [3] stands for this setting: Sting-/- mice, macrophage depletion at one day post infection, vs liposome control or treatment two days before.
[4] abbreviates: Mavs-/-:zDC-DTR mice, DT after 24 h of infection, vs untreated or DT four days before.
The mark [5] stands for this setting: WT mice, recombinant cytokine i.v. at 18 h post YM infection.

For the molecule “murine IFN-β: murine IFN-β of previous studies”, in the assay on P. berghei ANKA, the “protection of mice from ANKA infection” value was “protect”.
Take `O=P(O)(O)C(Cl)(Cl)P(=O)(O)O` [clodronate]: the “serum levels of IFN-α and IFN-β” value with P. yoelii YM [1] (Sting-/- mice, macrophage depletion two days before or one day after YM infection) is reported as “did not affect”. For the same molecule, in the assay on P. yoelii YM [2] (setting [3]), the host mortality result is “markedly increased parasitemia and host mortality”; the parasitemia entry was “markedly increased parasitemia and host mortality”.
Take `Cc1c(-c2cc(NS(=O)(=O)c3ccccc3Cl)n(C)n2)sc2ccc(Cl)cc12` [ML60218]: the “IFN-β mRNA expression” value in the assay on RNA polymerase III is reported as “markedly inhibited”.
Regarding diphtheria toxin [DT], the “serum IFN-α and IFN-β” value in the assay with P. yoelii YM [1] (Mavs-/-:BDCA2-DTR mice treated with DT vs Mavs-/- mice treated with DT, 24 h after infection) is reported as “markedly reduced”. For the same molecule, in the assay with P. yoelii YM [1] (Mavs-/-:zDC-DTR chimeric mice, DT four days before or one day post infection), the “serum levels of IFN-α and IFN-β” value is “no change”. For the same molecule, the “sensitivity to P. yoelii YM infection based on parasitemia and survival” value in the assay on P. yoelii YM [2] (DT-treated Mavs-/-:BDCA2-DTR mice vs DT-treated Mavs-/- mice) was “sensitive to P. yoelii YM infection”. In the assay on P. yoelii YM [2] (setting [4]), the parasitemia entry is recorded as “increased parasitemia” and the time of death entry was “died sooner”.

B1: IFN-γ: recombinant IFN-γ injected intravenously (protein, UniProt P01580 23-155, looked up)
Interferon gamma: HGTVIESLESLNNYFNSSGIDVEEKSLFLDIWRNWQKDGDMKILQSQIISFYLRLFEVLKDNQAISNNISVIESHLITTFFSNSKAKKDAFMSIAKFEVNNPQVQRQAFNELIRVVHQLLPESSLRKRKRSRC
Turning to B1, in the assay on P. yoelii YM [2] (setting [5]), the host mortality result is “failed to do so” and the parasitemia result was “slightly increased”.

B2: IL-6: recombinant IL-6 injected intravenously (protein, UniProt P08505 25-211, looked up)
Interleukin-6: FPTSQVRRGDFTEDTTPNRPVYTTSQVGGLITHVLWEIVEMRKELCNGNSDCMNNDDALAENNLKLPEIQRNDGCYQTGYNQEICLLKISSGLLEYHSYLEYMKNNLKDNKKDKARVLQRDTETLIHIFNQEVKDLHKIVLPTPISNALLTDKLESQKEWLRTKTIQFILKSLEEFLKVTLRSTRQT
Take B2: in the assay on P. yoelii YM [2] (setting [5]), the host mortality entry is given as “failed to do so” and the parasitemia entry was “failed to do so”.
